Results on one molecule are retold here after patent US20240207254A1, “METHODS FOR TITRATING MITAPIVAT” (Agios Pharmaceuticals, Inc., priority 2021, published 2024).

The nature of this series: phase 2 study: sudden withdrawal or missed doses of mitapivat, acute hemolysis. The class given is in vivo, human. Here is the method:
Clinical studies have also shown that acute hemolysis with subsequent anemia can occur following abrupt interruption or discontinuation of mitapivat. […] For example, in a phase 2 study with 300 mg of mitapivat dosed twice daily, 3.8% of subjects experienced hemolysis upon sudden withdrawal of mitapivat, including 1 serious adverse event of acute hemolysis. […] Although the exact risk factors which make someone susceptible to acute hemolysis cannot be determined, it appears that the rapid loss of hemoglobin is an issue for these cases. Given the uncertainty as to who is likely to experience signs or symptoms of acute hemolysis (or subsequent anemia), it is important to develop means for mitigating such events.

Take `O=C(c1ccc(NS(=O)(=O)c2cccc3cccnc23)cc1)N1CCN(CC2CC2)CC1` [mitapivat, N-(4-(4-(cyclopropylmethyl)piperazine-1-carbonyl)phenyl)quinoline-8-sulfonamide]: for the setting “patients who missed only a few doses later in their treatment course”, the “events indicative of acute hemolysis after missed doses” value is reported as “did not experience events indicative of acute hemolysis”. For the setting “phase 2 study, 300 mg mitapivat dosed twice daily, sudden withdrawal”, the “subjects who experienced hemolysis upon sudden withdrawal of mitapivat” value is given as 3.8%. For the same molecule, the “serious adverse event of acute hemolysis (number of events)” value (phase 2 study, 300 mg twice daily, sudden withdrawal, included in the 3.8%) worked out at 1.
